{"source": "paper PMC6934184", "about": "“Selective DNA-PKcs inhibition extends the therapeutic index of localized radiotherapy and chemotherapy” (The Journal of Clinical Investigation, 2019)", "molecular_target": "T1, MARK2 (Homo sapiens, UniProt Q7KZI7)", "T1 construct": "purchased Thermo Fisher Scientific (Life Technologies) SelectScreen", "T1 sequence (Q7KZI7 whole entry)": "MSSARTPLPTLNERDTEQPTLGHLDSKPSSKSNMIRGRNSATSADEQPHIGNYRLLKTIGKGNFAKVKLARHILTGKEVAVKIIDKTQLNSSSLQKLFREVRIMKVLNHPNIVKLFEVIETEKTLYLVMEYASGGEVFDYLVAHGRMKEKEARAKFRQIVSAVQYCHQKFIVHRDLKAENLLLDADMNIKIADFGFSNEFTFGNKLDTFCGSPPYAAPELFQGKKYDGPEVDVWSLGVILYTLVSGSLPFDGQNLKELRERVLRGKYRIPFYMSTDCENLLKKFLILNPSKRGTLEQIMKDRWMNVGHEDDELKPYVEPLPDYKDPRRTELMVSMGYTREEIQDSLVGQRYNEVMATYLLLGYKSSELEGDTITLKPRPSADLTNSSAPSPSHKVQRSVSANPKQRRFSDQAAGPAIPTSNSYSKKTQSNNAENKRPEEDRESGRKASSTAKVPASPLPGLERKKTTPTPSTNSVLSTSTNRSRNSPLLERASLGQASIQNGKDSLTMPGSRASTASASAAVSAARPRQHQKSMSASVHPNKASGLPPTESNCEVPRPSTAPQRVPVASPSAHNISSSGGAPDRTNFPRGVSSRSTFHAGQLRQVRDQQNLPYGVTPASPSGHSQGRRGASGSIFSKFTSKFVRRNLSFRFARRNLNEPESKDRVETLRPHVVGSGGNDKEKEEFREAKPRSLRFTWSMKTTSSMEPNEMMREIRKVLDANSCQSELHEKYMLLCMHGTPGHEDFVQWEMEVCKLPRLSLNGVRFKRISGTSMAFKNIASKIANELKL", "assay": "SelectScreen Z'LYTE", "assay_type": "biochemical", "in_short": "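SelectScreen broad panel; activity (Z'LYTE, Adapta) plus binding formats. ATP: Km app for CSF1R Z'LYTE; 10 for CAMK1 Adapta. Readout = % per kinase.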", "data": [{"smiles": "CN(C(=O)CN1CCOCC1)c1ccc2sc3c(-c4cccc5c(=O)cc(N6CC7CCC(C6)O7)oc45)cccc3c2c1", "note": "[NU5455]", "values": [{"measurement": "inhibition at 1 µM", "value": 0.1, "unit": "%"}]}]}
